Measured values: ChEMBL document CHEMBL1201862, “PubChem BioAssay data set” (2004)
Calls of active or inactive are those of the source.

Legend:
[1] = viability of uninfected HEp-2 cells – cell-based, HTS, cytotoxicity control for RSV inhibitor project, dose response (AID 2410); assay type: functional; settings: human respiratory syncytial virus
[2] = biological target: Peroxisome proliferator-activated receptor gamma/Nuclear receptor coactivator 1 (Homo sapiens, UniProt P37231); assay: (§1) TR-FRET dose response biochemical High Throughput Screening assay for agonists of the steroid receptor coactivator 1 (SRC-1) recruitment by the peroxisome proliferator-activated receptor gamma (PPAR gamma): non-selective agonists. [Related pubchem assays (depositor defined):AID1300, AID1808, AID504735, AID631]; assay type: protein assay
[3] = biological target: Peroxisome proliferator-activated receptor gamma/Nuclear receptor coactivator 3 (Homo sapiens, UniProt P37231); assay: as §1, with “3 (SRC-3)” for “1 (SRC-1)”, “assays: 1301 (Confirmation screen.), 1048 (Primary screen.)]” for “assays (depositor defined):AID1300, AID1808, AID504735, AID631]”; assay type: functional
[4] = biological target: Peroxisome proliferator-activated receptor gamma/Nuclear receptor coactivator 2 (Homo sapiens, UniProt P37231); assay: TR-FRET dose response biochemical High Throughput Screening assay for agonists of the steroid receptor coactivator 2 (SRC-2) recruitment by the peroxisome proliferator-activated receptor gamma (PPAR gamma): non-selective agonists. [Related pubchem assays: 1297, 1032 ]; assay type: functional
[5] = biological target: 26S proteasome non-ATPase regulatory subunit 14 (Homo sapiens, UniProt O00487); assay: inhibition of proteasome subunit RPN11 – biochemical, fluorescence polarization, uHTS hits, confirmation (AID 602368); assay type: functional
[6] = biological target: 72 kDa type IV collagenase (Homo sapiens, UniProt P08253); assay: Dose Response validation of uHTS RPN11 inhibitor hits using a MMP-2 Fluorescence assay.; assay type: functional
Prothrombin = Prothrombin (Bos taurus, UniProt P00735); assay: thrombin protease inhibitors – biochemical, fluorescence polarization, uHTS hits, dose response (AID 602369); assay type: functional
[7] = NIH-3T3 fibroblast cytotoxicity, dose response, cytotoxicity control, cell-based, fluorescence, Alamar Blue, secondary assay (AID 2327); assay type: functional;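 note: NIH-3T3 mouse fibroblasts cultured with fluconazole at 8 µg/mL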
[8] = fluconazole-exposed Candida albicans growth modulators – fluorescence, retest, confirmation (AID 2467); assay type: functional, cell-based
HeLa = assay: ATP-based viability loss in HeLa cells – cell-based, CellTiter-Glo luminescence, cherry-pick samples, cytotoxicity control for MITF activator project, dose response (AID 540259); assay type: functional; settings: Homo sapiens
[9] = Luminescence Cell-Based Dose Confirmation HTS to Identify Activators of 5'UTR Stem-Loop Driven Alpha-Synuclein mRNA Translation in H4 Neuroglioblastoma Cells. [Related pubchem assays: 1829 (Project Summary), 1814 (Primary HTS)]; assay type: functional
[10] = Luminescence Cell-Based Dose Response HTS to Identify Activators of Luciferase Translation or Activity in H4 […] Cells. [Related pubchem assays: 1829 (Project Summary), 1814 (Primary HTS)]; assay type: functional
H4 = assay: Luminescence Cell-Based Dose Response HTS to Identify Activators of 5'UTR Stem-Loop Driven Prion Protein mRNA Translation in H4 Neuroglioblastoma Cells. [Related pubchem assays: 1829 (Project Summary), 1814 (Primary HTS)]; assay type: functional; settings: Homo sapiens
[11] = biological target: G-protein coupled receptor 55 (Homo sapiens, UniProt Q9Y2T6); assay: selective activators of receptor GPR55 – imaging, U2OS cells, beta-arrestin-GFP redistribution, primary screen (AID 1961); assay type: functional
Aminopeptidase N = biological target: T1, Aminopeptidase N (Plasmodium falciparum FcB1/Columbia, UniProt O96935); assay: malaria alanyl aminopeptidase activity blockers – biochemical, fluorogenic H-Leu-NHMec substrate, 1536-well (AID 1445); parameters: species or system Plasmodium falciparum 3D7, 3D7
T1 sequence (O96935 whole entry): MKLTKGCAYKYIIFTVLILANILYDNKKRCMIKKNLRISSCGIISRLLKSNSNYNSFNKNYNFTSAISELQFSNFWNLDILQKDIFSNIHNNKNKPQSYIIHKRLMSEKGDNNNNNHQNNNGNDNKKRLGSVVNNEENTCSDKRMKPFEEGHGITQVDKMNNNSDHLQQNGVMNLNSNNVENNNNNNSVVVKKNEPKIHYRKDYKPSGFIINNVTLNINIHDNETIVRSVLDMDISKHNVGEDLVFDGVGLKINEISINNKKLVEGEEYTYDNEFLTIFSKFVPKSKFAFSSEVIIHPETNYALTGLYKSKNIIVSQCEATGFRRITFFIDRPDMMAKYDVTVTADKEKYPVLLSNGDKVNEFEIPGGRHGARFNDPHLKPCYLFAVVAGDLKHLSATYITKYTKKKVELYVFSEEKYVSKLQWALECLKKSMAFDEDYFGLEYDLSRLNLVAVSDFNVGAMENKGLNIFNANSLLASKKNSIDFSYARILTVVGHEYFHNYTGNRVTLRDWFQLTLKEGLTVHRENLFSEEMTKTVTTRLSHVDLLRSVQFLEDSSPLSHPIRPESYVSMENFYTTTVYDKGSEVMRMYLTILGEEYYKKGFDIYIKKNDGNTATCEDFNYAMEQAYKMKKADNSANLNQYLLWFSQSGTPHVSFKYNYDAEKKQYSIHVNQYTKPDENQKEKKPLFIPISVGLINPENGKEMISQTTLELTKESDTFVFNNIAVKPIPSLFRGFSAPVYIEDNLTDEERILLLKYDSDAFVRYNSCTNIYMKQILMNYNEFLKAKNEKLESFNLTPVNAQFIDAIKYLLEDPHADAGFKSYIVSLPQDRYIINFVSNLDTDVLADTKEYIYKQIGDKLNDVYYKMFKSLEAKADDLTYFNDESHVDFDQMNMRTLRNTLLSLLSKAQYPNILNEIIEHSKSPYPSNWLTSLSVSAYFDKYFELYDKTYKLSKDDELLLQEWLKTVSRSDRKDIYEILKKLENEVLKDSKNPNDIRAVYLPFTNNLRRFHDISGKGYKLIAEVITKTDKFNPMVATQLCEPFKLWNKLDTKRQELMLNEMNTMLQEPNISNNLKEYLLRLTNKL

[12] = biological target: Intestinal-type alkaline phosphatase (Mus musculus, UniProt P24822); assay: PubChem AID 488785; assay type: functional
[13] = biological target: FAD-linked sulfhydryl oxidase ALR (Homo sapiens, UniProt P55789); assay: ALR-catalysed DTT oxidation blockers – biochemical, H2O2 detection, luminescence, cherry-pick, dose response (AID 493248)
[14] = biological target: T2, Alkaline phosphatase, tissue-nonspecific isozyme (Homo sapiens, UniProt P05186); assay: TNAP enzyme inhibition by screening hits, dose response, selectivity assay for mouse IAP inhibitor project, biochemical, human TNAP, uHTS hits (AID 488906); assay type: functional
T2 sequence (P05186 whole entry): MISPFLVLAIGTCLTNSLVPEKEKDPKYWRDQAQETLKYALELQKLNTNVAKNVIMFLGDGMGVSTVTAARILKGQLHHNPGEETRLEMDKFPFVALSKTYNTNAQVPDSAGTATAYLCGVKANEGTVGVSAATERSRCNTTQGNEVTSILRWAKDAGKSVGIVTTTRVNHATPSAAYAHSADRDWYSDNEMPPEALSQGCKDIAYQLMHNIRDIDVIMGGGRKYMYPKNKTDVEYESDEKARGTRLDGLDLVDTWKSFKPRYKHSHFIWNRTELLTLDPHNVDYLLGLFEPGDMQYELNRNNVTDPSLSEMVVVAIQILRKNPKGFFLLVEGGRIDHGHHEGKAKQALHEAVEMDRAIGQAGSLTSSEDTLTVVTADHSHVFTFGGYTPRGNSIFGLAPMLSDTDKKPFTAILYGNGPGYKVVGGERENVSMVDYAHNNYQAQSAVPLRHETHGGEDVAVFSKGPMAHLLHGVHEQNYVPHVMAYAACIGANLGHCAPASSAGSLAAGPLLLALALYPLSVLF

[15] = biological target: Intestinal-type alkaline phosphatase (Homo sapiens, UniProt P09923); assay: inhibition of human intestinal alkaline phosphatase – biochemical, dose response (AID 488876); assay type: functional
Escherichia coli [16] = assay: microbe, parasite or virus in culture
Escherichia coli [17] = assay: microbe, parasite or virus in culture; remark: listed apart in the source

72 kDa type IV collagenase, sequence (P08253 whole entry): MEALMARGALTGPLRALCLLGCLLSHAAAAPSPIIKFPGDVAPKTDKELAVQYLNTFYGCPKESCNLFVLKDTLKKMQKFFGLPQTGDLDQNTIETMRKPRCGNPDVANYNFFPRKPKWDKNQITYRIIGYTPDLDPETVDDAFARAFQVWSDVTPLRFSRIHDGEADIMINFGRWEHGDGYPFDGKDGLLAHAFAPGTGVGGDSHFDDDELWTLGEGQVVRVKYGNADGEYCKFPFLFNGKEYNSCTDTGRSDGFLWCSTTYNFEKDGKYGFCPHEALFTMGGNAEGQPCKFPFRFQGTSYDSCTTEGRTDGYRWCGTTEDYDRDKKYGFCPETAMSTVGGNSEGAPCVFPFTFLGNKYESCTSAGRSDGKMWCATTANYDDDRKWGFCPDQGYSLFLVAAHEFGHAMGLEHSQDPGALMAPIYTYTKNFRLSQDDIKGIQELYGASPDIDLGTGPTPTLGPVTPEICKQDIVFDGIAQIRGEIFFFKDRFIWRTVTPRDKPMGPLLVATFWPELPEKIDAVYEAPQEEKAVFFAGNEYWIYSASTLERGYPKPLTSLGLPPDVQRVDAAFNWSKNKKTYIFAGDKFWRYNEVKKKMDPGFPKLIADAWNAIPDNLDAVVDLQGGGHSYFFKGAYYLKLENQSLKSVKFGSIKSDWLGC
26S proteasome non-ATPase regulatory subunit 14, sequence (O00487 whole entry): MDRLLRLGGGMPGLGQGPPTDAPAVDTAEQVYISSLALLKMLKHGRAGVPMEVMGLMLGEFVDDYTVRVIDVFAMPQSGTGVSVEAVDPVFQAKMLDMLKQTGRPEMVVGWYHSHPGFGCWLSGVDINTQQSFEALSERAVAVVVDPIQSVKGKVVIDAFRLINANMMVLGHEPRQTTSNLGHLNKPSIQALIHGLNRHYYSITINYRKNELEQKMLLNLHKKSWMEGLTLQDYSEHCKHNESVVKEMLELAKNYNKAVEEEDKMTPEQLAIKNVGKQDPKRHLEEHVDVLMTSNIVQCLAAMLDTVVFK
Intestinal-type alkaline phosphatase (Mus musculus, UniProt P24822), sequence (P24822 whole entry): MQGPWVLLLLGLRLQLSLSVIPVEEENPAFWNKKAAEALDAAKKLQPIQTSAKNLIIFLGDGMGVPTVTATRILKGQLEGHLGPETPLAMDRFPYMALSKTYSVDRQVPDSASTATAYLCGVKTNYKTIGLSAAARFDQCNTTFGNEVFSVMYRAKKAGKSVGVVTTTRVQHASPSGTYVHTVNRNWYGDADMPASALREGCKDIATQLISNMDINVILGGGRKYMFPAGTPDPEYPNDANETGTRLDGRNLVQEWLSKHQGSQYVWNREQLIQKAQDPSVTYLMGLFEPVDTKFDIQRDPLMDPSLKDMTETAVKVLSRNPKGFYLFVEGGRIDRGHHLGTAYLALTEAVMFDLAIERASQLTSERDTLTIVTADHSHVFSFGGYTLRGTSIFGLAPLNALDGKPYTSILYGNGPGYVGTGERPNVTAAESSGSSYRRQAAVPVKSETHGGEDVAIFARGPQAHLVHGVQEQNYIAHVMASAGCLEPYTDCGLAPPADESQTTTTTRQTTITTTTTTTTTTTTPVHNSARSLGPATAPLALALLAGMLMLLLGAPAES
Peroxisome proliferator-activated receptor gamma/Nuclear receptor coactivator 1, sequence (P37231 whole entry): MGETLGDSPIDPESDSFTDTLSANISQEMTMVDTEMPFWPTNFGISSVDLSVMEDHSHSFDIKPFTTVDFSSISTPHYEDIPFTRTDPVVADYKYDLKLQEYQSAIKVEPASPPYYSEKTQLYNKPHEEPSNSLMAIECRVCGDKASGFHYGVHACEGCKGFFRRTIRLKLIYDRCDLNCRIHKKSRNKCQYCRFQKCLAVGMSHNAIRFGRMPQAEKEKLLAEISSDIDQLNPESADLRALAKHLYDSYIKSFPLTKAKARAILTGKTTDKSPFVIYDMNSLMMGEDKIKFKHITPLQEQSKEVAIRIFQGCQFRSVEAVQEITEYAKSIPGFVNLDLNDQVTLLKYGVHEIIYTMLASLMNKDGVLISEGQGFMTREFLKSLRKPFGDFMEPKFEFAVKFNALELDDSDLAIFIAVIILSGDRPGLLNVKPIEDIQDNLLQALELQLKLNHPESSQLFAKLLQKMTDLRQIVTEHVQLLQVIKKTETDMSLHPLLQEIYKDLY
Peroxisome proliferator-activated receptor gamma/Nuclear receptor coactivator 1, sequence (Q15788 whole entry, further chain): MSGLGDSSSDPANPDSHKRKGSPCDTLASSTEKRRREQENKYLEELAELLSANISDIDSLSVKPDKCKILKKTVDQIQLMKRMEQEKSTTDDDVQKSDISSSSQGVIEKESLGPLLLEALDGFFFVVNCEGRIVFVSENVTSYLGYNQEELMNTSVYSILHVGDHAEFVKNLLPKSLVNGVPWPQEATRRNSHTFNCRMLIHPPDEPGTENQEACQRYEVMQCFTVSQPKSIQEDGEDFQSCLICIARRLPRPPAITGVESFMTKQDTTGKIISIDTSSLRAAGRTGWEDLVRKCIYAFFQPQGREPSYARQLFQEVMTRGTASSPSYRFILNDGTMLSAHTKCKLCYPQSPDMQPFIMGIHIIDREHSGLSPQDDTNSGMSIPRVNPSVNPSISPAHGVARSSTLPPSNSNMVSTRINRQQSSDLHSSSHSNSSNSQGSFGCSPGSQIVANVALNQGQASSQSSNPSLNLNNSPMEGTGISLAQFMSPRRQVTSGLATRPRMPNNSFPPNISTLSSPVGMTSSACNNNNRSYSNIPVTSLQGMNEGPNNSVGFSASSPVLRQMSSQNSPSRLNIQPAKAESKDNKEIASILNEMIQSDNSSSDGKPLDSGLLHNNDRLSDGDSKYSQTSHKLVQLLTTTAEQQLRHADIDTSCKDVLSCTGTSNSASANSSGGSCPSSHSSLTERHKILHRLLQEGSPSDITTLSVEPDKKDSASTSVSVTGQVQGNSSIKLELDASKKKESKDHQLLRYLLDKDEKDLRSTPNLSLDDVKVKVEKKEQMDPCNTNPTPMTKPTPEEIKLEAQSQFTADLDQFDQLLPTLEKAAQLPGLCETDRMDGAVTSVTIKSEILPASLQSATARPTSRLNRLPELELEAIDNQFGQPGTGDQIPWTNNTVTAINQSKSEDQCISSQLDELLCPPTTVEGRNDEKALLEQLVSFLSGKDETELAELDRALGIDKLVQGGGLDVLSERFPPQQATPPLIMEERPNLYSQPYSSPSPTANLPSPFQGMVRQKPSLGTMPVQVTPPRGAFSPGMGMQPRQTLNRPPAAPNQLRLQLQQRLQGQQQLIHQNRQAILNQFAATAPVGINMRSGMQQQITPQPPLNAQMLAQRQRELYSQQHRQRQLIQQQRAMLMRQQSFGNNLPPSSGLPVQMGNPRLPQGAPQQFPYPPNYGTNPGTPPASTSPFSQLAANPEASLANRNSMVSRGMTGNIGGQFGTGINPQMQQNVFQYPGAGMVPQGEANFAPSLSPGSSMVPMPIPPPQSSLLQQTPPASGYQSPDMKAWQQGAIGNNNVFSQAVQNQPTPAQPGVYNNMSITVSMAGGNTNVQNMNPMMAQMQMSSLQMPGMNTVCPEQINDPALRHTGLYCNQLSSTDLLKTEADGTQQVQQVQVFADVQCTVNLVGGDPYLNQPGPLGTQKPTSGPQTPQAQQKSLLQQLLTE
FAD-linked sulfhydryl oxidase ALR, sequence (P55789 whole entry): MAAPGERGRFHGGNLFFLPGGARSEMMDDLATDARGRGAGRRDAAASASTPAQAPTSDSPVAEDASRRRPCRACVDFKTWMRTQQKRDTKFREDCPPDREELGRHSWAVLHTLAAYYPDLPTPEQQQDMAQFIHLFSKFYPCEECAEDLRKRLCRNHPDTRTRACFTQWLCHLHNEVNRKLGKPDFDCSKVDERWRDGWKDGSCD
Intestinal-type alkaline phosphatase (Homo sapiens, UniProt P09923), sequence (P09923 whole entry): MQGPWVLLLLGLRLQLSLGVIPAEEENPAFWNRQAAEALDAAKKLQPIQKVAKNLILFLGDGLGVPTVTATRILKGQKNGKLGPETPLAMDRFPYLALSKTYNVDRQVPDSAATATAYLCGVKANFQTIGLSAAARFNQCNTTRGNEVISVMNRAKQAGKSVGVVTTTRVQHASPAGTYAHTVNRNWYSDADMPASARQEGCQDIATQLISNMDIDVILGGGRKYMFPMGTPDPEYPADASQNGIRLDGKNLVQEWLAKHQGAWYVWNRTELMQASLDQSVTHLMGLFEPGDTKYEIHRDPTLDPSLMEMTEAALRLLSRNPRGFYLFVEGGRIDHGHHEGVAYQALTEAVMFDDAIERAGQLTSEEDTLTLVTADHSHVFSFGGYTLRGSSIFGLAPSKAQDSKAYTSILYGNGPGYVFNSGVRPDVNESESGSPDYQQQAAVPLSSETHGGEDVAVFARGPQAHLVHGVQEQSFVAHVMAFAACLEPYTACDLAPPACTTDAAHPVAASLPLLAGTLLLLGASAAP
G-protein coupled receptor 55, sequence (Q9Y2T6 whole entry): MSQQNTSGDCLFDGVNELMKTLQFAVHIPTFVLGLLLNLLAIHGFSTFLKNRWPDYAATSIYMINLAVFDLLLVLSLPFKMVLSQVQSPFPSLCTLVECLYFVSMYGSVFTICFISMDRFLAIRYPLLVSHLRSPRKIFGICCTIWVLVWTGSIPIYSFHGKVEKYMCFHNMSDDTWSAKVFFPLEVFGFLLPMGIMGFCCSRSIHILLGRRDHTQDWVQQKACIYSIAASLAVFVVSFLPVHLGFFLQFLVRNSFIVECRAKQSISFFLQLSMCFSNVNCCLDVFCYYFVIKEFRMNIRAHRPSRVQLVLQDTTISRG

With `O=c1cc(CSc2nc3nncc-3c(O)n2-c2ccc(Br)cc2)nc2ccc(Br)cn12` as the compound, how does the CC50 [1] read?
The CC50 was 22.8 µM (active).

What about the EC50 [2] of the same compound?
Its EC50 is 15.8 µM (inactive).

What about the EC50 [3] of the same compound?
The EC50 was 48.1 µM (not active).

And the EC50 [4]?
The EC50 was 11.6 µM (not active).

With `Cc1cc2nc(CS)[nH]c2cc1C` as the compound, how does the IC50 [5] read?
The IC50 was 51.1 µM (active).

What about the IC50 [6] of the same compound?
The IC50 was 9.51 µM (active).

What about the IC50 (Prothrombin) of the same compound?
Its IC50 is > 100 µM (inactive).

Which EC50 [7] does the source give for `Cc1ccc(N2NC(C)(c3cccs3)N=C2S)cc1` (stereo not given) here?
The EC50 was 7.74 µM (active).

What about the EC50 [8] of the same compound?
The EC50 was 1.27 µM (active).

What about the AC50 (HeLa) of the same compound?
The AC50 was > 350 µM (inactive).

Which results are given for `CC(C)C[C@@H](CSc1ccccc1)N1CCN(CC(C)C)CCC1=O`?
EC50 [9]: 5.27 µM (active); EC50 [10]: 41.4 µM (active); EC50 (H4): > 120 µM (not active); EC50 [11]: 14.1 µM (inactive); AC50 (HeLa): 147 µM (active)

Which results are given for `O=c1[nH]c(CSc2ncnc3sccc23)nc2cc(C(F)(F)F)ccc12`?
IC50 [5]: 32 µM (active); IC50 [6]: > 100 µM (inactive); IC50 (Prothrombin): 60.8 µM (active)

Which IC50 (Aminopeptidase N) does the source give for `Cc1ccc(S(=O)(=O)Nc2ccc(O)c(Sc3nc[nH]n3)c2)cc1` here?
The IC50 was 83.8 µM (active).

What about the IC50 [12] of the same compound?
The IC50 was 13.8 µM (active).

And the AC50 [13]?
Its AC50 is 3.31 µM (active).

And the IC50 [14]?
Its IC50 is > 100 µM (inactive).

And the IC50 [15]?
Its IC50 is > 100 µM (inactive).

With `c1ccc(Nc2cc(-c3ccccc3)nc3ncnn23)cc1` as the compound, how does the AC50 (Escherichia coli [16]) read?
Its AC50 is 18.4 µM (active).

What about the AC50 (Escherichia coli [17]) of the same compound?
The AC50 was 72 µM (active).
